According to ChEMBL document CHEMBL5338790, “Discovery of Subcellular-Targeted Aza-BODIPY Photosensitizers for Efficient Photodynamic Antitumor Therapy” (J Med Chem, 2023):
Active and inactive are the calls of the source. The rule behind the calls is not given here.

How the values were obtained:
HeLa [1] = test: Disruption of lysosomes in human HeLa cells at 50 to 100 nM incubated for 3 hrs with photo-irradiation at 16 J/cm2 by AO staining based confocal scanning microscopy; assay type: functional, cell-based; conditions: dose 50-100 nM
HeLa [2] = test: Induction of apoptosis in human HeLa cells assessed as viable cells at 25 nM incubated for 3 hrs with photo-irradiation at 54 J/cm2 by Annexin V-FITC/PI staining based flow cytometry relative to control; assay type: functional; conditions: light or radiation study, read-out: Activity
HeLa [3] = test: Induction of apoptosis in human HeLa cells assessed as increase in percentage of apoptosis/necrosis at 25 nM incubated for 3 hrs with photo-irradiation at 54 J/cm2 by Annexin V-FITC/PI staining based flow cytometry relative to control; assay type: functional

For `COc1ccc2c(c1)CCc1c(-c3ccccc3)c3n(c1-2)[B-](F)(F)[N+]1=C(c2ccc(OCC(=O)NCCCN4CCOCC4)cc2)C(I)=C(c2ccccc2)C1=N3`, the Activity (HeLa [1]) was “Active”, the viability at 0.025 µM (HeLa [2]) was 47% and the Activity (HeLa [3]) was 13.1%.
